The text below walks through data of patent publication US20230192683A1, “FUSED RING COMPOUNDS, PREPARATION METHOD THEREFOR, PHARMACEUTICAL COMPOSITIONS AND USE THEREOF” (priority 2020, published 2023).

The assay addresses T1, human SSTR4 (Homo sapiens, UniProt P31391).
T1 construct: expressed in transfected cells
Briefly: cell-based human SSTR4 cAMP assay (agonist activity). The note with it: SSTR4, EC50 (nM), Flp-In-CHO-SSTR4 stable pool, Forskolin-stimulated cAMP. The procedure:
Purpose of test: A cell-based human SSTR4 cAMP assay was used to determine the agonistic effect of the test compound on an SSTR 4 receptor.
Cell culture and reagent preparation: cell line: Flp-In-CHO-SSTR4 stable pool; complete medium: Ham’s F-12 K + 10% FBS + 1 × penicillin-streptomycin (PS) + 600 µg/ml hygromycin B; cell seeding medium: Ham’s F-12K + 10% FBS; assay buffer: 1 × HBSS + 20 mM HEPES + 0.1%BSA + 500 uM IBMX.
The Flp-In-CHO-SSTR 4 stable pool cell line was cultured in a complete medium at 37° C., 5% CO2 until a confluency of 70% to 90%.
After TrypLE digestion, the cells were resuspended in the seeding medium and seeded in a 384-well cell culture plate (384 PE culture plate), with 7,000 cells per well, and were cultured overnight at 37° C., 5% CO2.
The cell culture plate was taken out, inverted at 200 g at room temperature for 5 s to remove the medium, then quickly filled with 15 µl of an experimental buffer to each experimental well, and centrifuged at 200 g at room temperature for 5 s.
2.5 µl of the 8x compound working solution diluted in step 3 was added to corresponding test wells, which were centrifuged at 200 g for 5 s at room temperature, and incubated at 37° C. for 10 min.
A 4 uM Forskolin working solution (8x) was prepared.
The cell plate was taken out and equilibrated to room temperature, then filled with 2.5 µl of the 8x Forskolin working solution prepared in step 6 to corresponding test wells, followed by RT at 200 g for 5 s, and left to stand at 37° C. for 30 min.
A Eu-cAMP tracer and Uliaght-anti-cAMP were freeze-thawed, the Eu-cAMP tracer was diluted 50-fold with a detection buffer, and the Uliaght-anti-cAMP was dilutd 150-fold.
10 µl of the Eu-cAMP tracer was added to all experimental wells, then 10 µl of the detection buffer was added to NC wells, and 10 µl of the Uliaght-anti-cAMP was added to the remaining experimental wells.
The reaction plate was centrifuged at 200 g for 30 s at room temperature, and after standing at 25° C. for 1 h, data was collected using Envision.
Compound EC50 was calculated using a GraphPad nonlinear fitting formula: […]
X: Compound concentration log value; Y: HTRF ratio

T1 sequence (P31391 whole entry): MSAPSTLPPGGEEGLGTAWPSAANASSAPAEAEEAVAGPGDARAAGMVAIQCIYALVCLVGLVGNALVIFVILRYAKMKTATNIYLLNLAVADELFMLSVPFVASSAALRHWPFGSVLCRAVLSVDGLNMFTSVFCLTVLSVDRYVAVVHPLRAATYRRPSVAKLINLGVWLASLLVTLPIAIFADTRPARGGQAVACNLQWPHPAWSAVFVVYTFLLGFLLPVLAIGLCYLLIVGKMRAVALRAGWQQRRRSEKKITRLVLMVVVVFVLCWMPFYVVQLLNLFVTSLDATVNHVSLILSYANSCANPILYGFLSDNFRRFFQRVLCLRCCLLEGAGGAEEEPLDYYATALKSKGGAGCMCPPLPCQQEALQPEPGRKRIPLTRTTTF

For `CSc1cccc2c(C(C)(C)NC(=O)[C@H]3[C@@H]4CNC[C@@H]43)nn(C)c12` [Compound 14, (1R,5S,6R)-N-(2-(1-Methyl-7-(Methylthio)-1H-Indazol-3-yl)Prop-2-yl)-3-Azabicyclo[3.1.0]Hexane-6-Carboxamide], the EC50 was determined as 0.057 nM.
